Experimental data as given in patent publication US20220402862A1 (Intellia Therapeutics, Inc., priority 2019, published 2022).

Legend:
[1] = system: mouse B2M gene; assay: In vivo editing in mouse liver, sgRNA targeting B2M (G650), % indel by NGS; parameters: species or system CD-1 female mice; conditions: for Editing Mean % Indel: mouse liver, guide G650, Experiment 104; for Liver editing (%): mouse, experiment 108
Procedure: CD-1 female mice ranging from 6-10 weeks of age were used in each study. Animals were weighed and grouped according to body weight for preparing dosing solutions based on group average weight. LNPs were dosed via the lateral tail vein in a volume of 0.2 mL per animal (approximately 10 mL per kilogram body weight). The animals were periodically observed for adverse effects for at least 24 hours post dose. For studies measuring in vivo editing in liver, CD-1 female mice were dosed at 0.1 mg/kg unless otherwise noted. Animals were euthanized at 6 or 7 days by ex sanguination via cardiac puncture under isoflurane anesthesia. Liver tissue was collected from each animal for DNA extraction and analysis. Blood was collected into serum separator tubes or into tubes containing buffered sodium citrate for plasma as described herein. Cohorts of mice were measured for editing by Next-Generation Sequencing (NGS).
(§1) In brief, to quantitatively determine the efficiency of editing at the target location in the genome, genomic DNA was isolated and deep sequencing was utilized to identify the presence of insertions and deletions introduced by gene editing.
(§2) PCR primers were designed around the target site (e.g., within B2M), and the genomic area of interest was amplified. Additional PCR was performed according to the manufacturer's protocols (Illumina) to add the necessary chemistry for sequencing. The amplicons were sequenced on an Illumina MiSeq instrument. The reads were aligned to the mouse or rat reference genome (e.g., GRCm38) after eliminating those having low quality scores. The resulting files containing the reads were mapped to the reference genome (BAM files), where reads that overlapped the target region of interest were selected and the number of wild type reads versus the number of reads which contain an insertion, substitution, or deletion was calculated.
(§3) The editing percentage (e.g., the “indel efficiency” or “percent indels”) was defined as the total number of sequence reads with insertions or deletions over the total number of sequence reads, including wild type.
We assessed in vivo editing efficiency for materials delivered with formulations including various amine lipid compounds. Editing was measured using either G282 (SEQ ID No: 1) which targets the mouse TTR gene or G650 (SEQ ID No. 2) which targets the mouse B2M gene. Lipids described above were assessed for efficacy through in vivo editing experiments. LNPs were formulated at a 1:1 or 1:1.3 w/w ratio of sgRNA to Cas9 mRNA, and at an N/P ratio of about 6. Molar concentrations of lipids in the lipid component of the LNPs are used at mol % amine lipid/DSPC/cholesterol/PEG-2k-DMG of 50/9/38/3. The final LNPs were characterized to determine the encapsulation efficiency, polydispersity index, and average particle size according to the analytical methods provided above. Analysis of average particle size, polydispersity (PDI), total RNA content and encapsulation efficiency of RNA are shown in Table 2.
Alternatively, Cas9 mRNA of Example 120 was formulated as LNPs with an sgRNA targeting B2M (G650, SEQ ID NO: 2) These LNPs were formulated at a w/w ratio of a sgRNA and Cas9 mRNA as indicated in Table 4. The LNPs were formulated using the cross flow procedure with lipid molar compositions of mol % amine lipid/DSPC/cholesterol/PEG-2k-DMG of 50/9/38/3 and an N/P ratio of 6.0. […]
CD-1 female mice were dosed i.v. at 0.1, 0.3, or 1 mg/kg and assessed for editing in liver, spleen, and bone marrow.

[2] = system: Transthyretin (TTR); assay: Serum TTR measurement in rats after LNP dosing; type: in vivo, Sprague Dawley female rats; conditions: Experiment 109; for Serum TTR % TSS: rat serum TTR relative to TSS control; for Serum TTR: rat serum, G534 sgRNA + Cas9 mRNA LNP
[3] = system: mouse TTR gene; assay: In vivo editing in mouse liver, sgRNA targeting TTR (G282 or G502), % indel by NGS; parameters: species or system CD-1 female mice
Summary of the method: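 Female CD-1 mice, 6–10 weeks, given a single i.v. tail-vein dose of LNPs carrying Cas9 mRNA plus TTR sgRNA (G282 or G502), at several dose levels. Liver collected at 6 or 7 days; percent indels = reads with insertions or deletions over total reads, by amplicon NGS.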

[4] = system: TTR rat gene; assay: In vivo editing in rat liver, sgRNA targeting TTR (G534), % indel by NGS; parameters: species or system Sprague Dawley female rats; conditions: G534 sgRNA + Cas9 mRNA LNP, Experiment 109
Procedure: Sprague Dawley female rats ranging from 6-7 weeks of age were used in each study. Each animal was weighed and dosing solutions were prepared based on body weight. LNPs were dosed via the lateral tail vein in a volume of 0.35 mL per animal (approximately 2 mL per kilogram body weight). The animals were periodically observed for adverse effects for at least 24 hours post dose.
For studies measuring in vivo editing in liver, animals were dosed at 0.1 mg/kg or 0.3 mg/kg. Animals were euthanized by CO2 asphyxiation 6 days post dose. At necropsy, the liver was collected for editing analysis by NGS and blood was collected into serum separator tubes for serum TTR measurement.
as §1, §2, §3
In vivo delivery in a rat model was assessed by measuring editing efficiency for materials delivered with formulations including various amine lipid compounds. Cas9 mRNA (SEQ ID NO: 6) was formulated as LNPs with an sgRNA targetting the TTR rat gene (G534, SEQ ID NO: 5). LNPs were formulated and characterized as described in Example 123. Analysis of average particle size, polydispersity (PDI), total RNA content and encapsulation efficiency of RNA are shown in Table 10.
Sprague Dawley female rats were dosed i.v. at 0.1 or 0.3 mg/kg and assessed for editing in liver.

[5] = LNP i.v. 0.03 mg/kg, guide G502, Experiment 105
[6] = LNP i.v. 0.1 mg/kg, guide G502, Experiment 105
[7] = LNP i.v. 0.1 mg/kg, guide G282, Experiments 101-103
[8] = LNP i.v. 0.3 mg/kg, guide G282, Experiments 101-103

SMILES | Editing Mean % Indel ([1]; LNP i.v. 0.1 mg/kg) | Editing Mean % Indel ([1]; LNP i.v. 0.3 mg/kg) | Liver editing (%) ([1]; G650, i.v. dose 0.1 mg/kg) | Liver editing (%) ([1]; G650, i.v. dose 0.3 mg/kg) | Liver editing (%) ([1]; G650, i.v. dose 1 mg/kg) | Serum TTR % TSS ([2]; G534, i.v. 0.1 mg/kg) | Serum TTR % TSS ([2]; G534, i.v. 0.3 mg/kg) | Serum TTR ([2]; i.v. 0.1 mg/kg) | Serum TTR ([2]; i.v. 0.3 mg/kg) | Editing Mean % Indel [3, 5] | Editing Mean % Indel [3, 6] | Editing Mean % Indel ([4]; i.v. 0.1 mg/kg) | Editing Mean % Indel ([4]; i.v. 0.3 mg/kg) | Editing Mean % Indel [3, 7] | Editing Mean % Indel [3, 8]
CCCCC/C=C\C/C=C\CCCCCCCC(=O)OCC(COC(=O)CCC(OCCCCCCCC)OCCCCCCCC)COC(=O)OCCCN(CC)CC (stereo not shown) [Compound 1, 3-((4,4-bis(octyloxy)butanoyl)oxy)-2-((((3-(diethylamino)propoxy)carbonyl)oxy)methyl)propyl (9Z,12Z)-octadeca-9,12-dienoate, reference compound] | 17.8% | 50.3% | 23.74% | 58.48% | 73.6% | 56.6 % TSS | 7.1 % TSS | 916.9 µg/mL | 114.3 µg/mL | 9.24% | 47.62% | 21.1% | 61.3% |  | 
CCCCC/C=C\C/C=C\CCCCCCCC(=O)OCC(COC(=O)CCC(OCCCCCCCC)OCCCCCCCC)COC(=O)NCC1CCCN1CC (stereo not shown) [Compound 40, 3-((4,4-bis(octyloxy)butanoyl)oxy)-2-(((((1-ethylpyrrolidin-2-yl)methyl)carbamoyl)oxy)methyl)propyl (9Z,12Z)-octadeca-9,12-dienoate] |  |  |  |  |  |  |  |  |  |  |  |  |  | 30.2% | 68.0%
CCCCC/C=C\C/C=C\CCCCCCCC(=O)OCC(COC(=O)CCC(OCCCCCCCC)OCCCCCCCC)COC(=O)OCC1CCCN(C)C1 (stereo not shown) [Compound 53, 3-((4,4-bis(octyloxy)butanoyl)oxy)-2-(((((1-methylpiperidin-3-yl)methoxy)carbonyl)oxy)methyl)propyl (9Z,12Z)-octadeca-9,12-dienoate] |  |  |  |  |  |  |  |  |  |  |  |  |  | 8.6% | 48.2%
CCCCCCCCCCOC(=O)CCCCCCCC(=O)OCC(COC(=O)CCC(OCCCCCCCC)OCCCCCCCC)COC(=O)OCCCN(CC)CC (stereo not shown) [Compound 59, 1-(3-((4,4-bis(octyloxy)butanoyl)oxy)-2-((((3-(diethylamino)propoxy)carbonyl)oxy)methyl)propyl) 9-decyl nonanedioate] | 21.2% | 51.6% |  |  |  | 69.4 % TSS | 20.9 % TSS | 1124.0 µg/mL | 337.9 µg/mL | 11.8% | 35.64% | 12.4% | 46.2% | 32.4% | 63.9%
CCCCCCCCCC(C)OC(=O)CCCCCCCC(=O)OCC(COC(=O)CCC(OCCCCCCCC)OCCCCCCCC)COC(=O)OCCCN(CC)CC (stereo not shown) [Compound 94, 1-(344,4-bis(octyloxy)butanoyl)oxy)-2-((((3-(diethylamino)propoxy)carbonyl)oxy)methyl)propyl) 9-(undecan-2-yl) nonanedioate] |  |  |  |  |  | 39.5 % TSS | 8.2 % TSS | 639.5 µg/mL | 132.9 µg/mL | 19.76% | 43.52% | 31.7% | 60.0% |  | 
CCCCC/C=C\C/C=C\CCCCCCCC(=O)OCC(COC(=O)CC12CC3CC(CC(C3)C1)C2)COC(=O)OCCCN(CC)CC (stereo not shown) [Compound 107, 3-(2-((3 r,5 r, 7r)-adamantan-1-yl)acetoxy)-2-((((3-(diethylamino)propoxy)carbonyl)oxy)methyl)propyl (9Z,12Z)-octadeca-9,12-dienoate] |  |  | 0.52% | 1.04% | 5.92% |  |  |  |  |  |  |  |  |  | 
